Assays:
OXA-48 = OXA-48 (Klebsiella pneumoniae, UniProt Q6XEC0); assay: 1H NMR of enzymatic hydrolysis products; assay type: biochemical
NDM-1 = NDM-1 (Klebsiella pneumoniae, UniProt C7C422); assay: 1H NMR of enzymatic hydrolysis products; assay type: biochemical
Sequence of NDM-1 (C7C422 29-270, looked up): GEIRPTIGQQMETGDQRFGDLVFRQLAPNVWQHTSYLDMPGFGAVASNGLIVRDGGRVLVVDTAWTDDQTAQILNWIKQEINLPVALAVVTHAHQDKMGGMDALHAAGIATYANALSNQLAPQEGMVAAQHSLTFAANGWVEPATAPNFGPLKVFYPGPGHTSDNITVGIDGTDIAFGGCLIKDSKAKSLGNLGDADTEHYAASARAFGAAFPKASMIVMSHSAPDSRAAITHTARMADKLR

Sequence of OXA-48 (Q6XEC0 23-265 limits assumed): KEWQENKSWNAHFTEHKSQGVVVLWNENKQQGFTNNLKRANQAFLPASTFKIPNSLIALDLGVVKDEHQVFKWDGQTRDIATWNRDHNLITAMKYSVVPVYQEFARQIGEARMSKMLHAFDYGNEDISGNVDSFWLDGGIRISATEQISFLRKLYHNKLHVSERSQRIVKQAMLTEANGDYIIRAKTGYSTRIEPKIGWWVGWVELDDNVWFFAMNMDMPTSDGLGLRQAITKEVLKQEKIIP

C[C@@H](O)[C@H]1C(=O)N2C(C(=O)O)=C([C@H]3CCCO3)S[C@H]12 [faropenem]
1H NMR of enzymatic hydrolysis products (5 μM enzyme, 55 min) (OXA-48): the class D SBLs OXA-10, OXA-23 and OXA-48 and the B1 MBLs NDM-1 and VIM-1
1H NMR of enzymatic hydrolysis products (5 μM enzyme, 5 min) (NDM-1): we subsequently studied the reaction of faropenem with other SBLs/MBLs

— publication PMC7614720 (European journal of medicinal chemistry, 2021)
